# Source: patent publication US8946119B2, “Chitooligosaccharides and methods for use in enhancing soybean growth” (Novozymes BioAg A/S, priority 2011, dated 2015)
# Legend:
# soybean foliage = assay: Soybean field trials, foliar treatment, grain yield; details: in vivo
# [1] = tested on: Soybean seeds (Jung seed, var. 8168NRR); assay: Greenhouse soybean seed treatment, leaf surface area; assay type: in vivo; details: seed treatment 3 fl oz/100 lbs of seed; seedlings grown 4 wks; central leaflet of 2nd trifoliate; vs control (water); FIG. 5
# Description: Soybean seeds (Jung seed, var. 8168NRR) were treated with various active molecules. Seeds were treated with a liquid dose rate of 3 fl oz/100 lbs of seed. Seeds were allowed to dry for a 2 hours and planted in greenhouse in plastic pots containing 1:1 sand:perlite mixture. Seedlings were grown for 4 wks with occasional liquid fertilizer applications and then the plants were harvested. The central leaflet from the 2nd trifoliate (from down to top) was isolated and measured for surface area on a WinRhizo scanner. The rest of the plants were used for plant dry weight (DW).
# [2] = tested on: Soybean plants (Jung seed, var. 8168NRR); assay: Greenhouse soybean foliar treatment, plant dry biomass; assay type: in vivo; details: foliar application at V4 growth stage, FIG. 8
# Description: Soybean plants (Jung seed, var. 8168NRR) were treated with various active molecules at V4 growth stage. Plant were grown from seeds in greenhouse in plastic pots containing 1:1 sand:perlite mixture. Seedlings were grown for 4 wks with occasional liquid fertilizer applications and then the plants were harvested.
# [3] = tested on: Soybean seeds (Pioneer 9oM80); assay: Soybean seed treatment in petriplates, radicle length; assay type: in vivo; details: germination paper soaked with 5 ml of treatment solution; radicles measured after 48 hours; FIG. 7
# Description: Soybean seeds (Pioneer 9oM80) were plated in petriplates on moist germination paper soaked with 5 ml of treatment solution containing either water or Soybean LCO, Pea CO and CO plus fatty acids. Seedling radicles were isolated after 48 hours and measured for their length.
Substance,Positive Yield Response (%) (soybean foliage),Response (bu/A) over Control (soybean foliage) [bu/A],Response Increase (% of Control) (soybean foliage) [%],"YIELD, Mean (N = 19) (soybean foliage) [bu/A]",leaf surface area [1],plant dry biomass [2],plant dry biomass ([2]; listed as LCO),radicle length [3]
LCO-V (C18:1) [LCO (SP104)],68.4,1.8,3,58.3,significant increase in leaf surface area,,,
"LCO-V(C18:1, MeFuc) [soybean LCO]",,,,,,no significant effect on plant dry biomass increase,relatively higher than the control plants,better seed radicle growth enhancement over control and CO
